Source: patent US20240368112A1, “BENZYLTHIOPHENE DERIVATIVES” (Rosalind Franklin University of Medicine & Science, priority 2021, published 2024)

Key:
STAT3 = STAT3 (Homo sapiens (Human), UniProt P40763); test: Inhibition of IFN-induced STAT3 phosphorylation in GBM cells (western blotting); type: cell-based
STAT1 = STAT1 (Homo sapiens (Human), UniProt P42224); test: IFN-induced STAT1 phosphorylation in GBM cells (western blotting); type: cell-based
MCF7 breast cancer cells = test: MTS cell viability assay in MCF7 breast cancer cells; type: cell-based; details: 72 hours treatment, concentration not given
Experimental: MTS assay was used to determine the cell viability for all compounds tested. Computational docking scores were used to evaluate potential for STAT 3 inhibition (FIG. 9 and Table 3). MCF7 breast cancer cells were grown until 80-90% confluence. Cells were then transferred to a Costar 96-well plate with about 3000 cells per well. Cells were incubated for 24 hours. After incubation cells were treated with appropriate compounds and concentration for 72 hours. Twenty microliters of MTS solution was added to each well and incubated for 2 hours. The plate was then analyzed using […].

MT300 GBM cells = test: Antiproliferative activity, CellTiter Glo assay, MT300 GBM cells; type: cell-based; details: 72 h, read-out: IC50 (proliferation)
LN299 GBM cells = test: Antiproliferative activity, CellTiter Glo assay, LN299 GBM cells; type: cell-based; details: 72 h, unit misprinted as 'and', read-out: IC50 (proliferation)
parental GBM cells = test: Proliferation of parental (empty vector) GBM cells, Incucyte live cell analysis; type: cell-based; details: parental (EV) GBM cells
STAT3-KO GBM cells = test: Proliferation of STAT3-knockout GBM cells, Incucyte live cell analysis; type: cell-based
MT330 glioma xenografts = test: Orthotopic MT330 glioma xenografts in mice, bioluminescent imaging; type: in vivo; details: 20 mg/Kg in DMSO, into the peritoneum three times per week, female mice, BLI
Experimental: BLI pictures were taken at Day 21.
In brief, 10^6 luciferase-expressing MT330 GBM cells were injected orthotopically into the brains of female […] mice. […] Tumor growth was monitored by BLI two times per week as we have previously described.

STAT1, sequence (P42224 whole entry): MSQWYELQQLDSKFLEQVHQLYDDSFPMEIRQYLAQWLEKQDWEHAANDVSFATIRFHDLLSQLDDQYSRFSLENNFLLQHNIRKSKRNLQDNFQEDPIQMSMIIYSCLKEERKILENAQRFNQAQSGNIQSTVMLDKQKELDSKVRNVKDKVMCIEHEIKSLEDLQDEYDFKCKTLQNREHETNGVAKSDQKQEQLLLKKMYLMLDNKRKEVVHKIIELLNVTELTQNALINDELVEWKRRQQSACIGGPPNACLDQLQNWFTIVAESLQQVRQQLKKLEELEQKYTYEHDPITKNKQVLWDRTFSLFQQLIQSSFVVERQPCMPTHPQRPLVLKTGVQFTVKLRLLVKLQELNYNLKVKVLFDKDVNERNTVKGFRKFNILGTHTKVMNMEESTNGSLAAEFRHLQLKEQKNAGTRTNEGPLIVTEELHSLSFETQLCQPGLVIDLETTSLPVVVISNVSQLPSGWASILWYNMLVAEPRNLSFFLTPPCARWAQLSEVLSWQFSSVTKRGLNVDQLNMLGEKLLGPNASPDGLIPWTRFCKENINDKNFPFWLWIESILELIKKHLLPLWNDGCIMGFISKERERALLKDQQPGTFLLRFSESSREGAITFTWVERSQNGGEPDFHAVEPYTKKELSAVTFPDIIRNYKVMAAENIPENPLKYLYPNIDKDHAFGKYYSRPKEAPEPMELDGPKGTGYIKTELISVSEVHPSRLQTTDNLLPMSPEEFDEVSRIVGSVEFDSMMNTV
STAT3, sequence (P40763 whole entry): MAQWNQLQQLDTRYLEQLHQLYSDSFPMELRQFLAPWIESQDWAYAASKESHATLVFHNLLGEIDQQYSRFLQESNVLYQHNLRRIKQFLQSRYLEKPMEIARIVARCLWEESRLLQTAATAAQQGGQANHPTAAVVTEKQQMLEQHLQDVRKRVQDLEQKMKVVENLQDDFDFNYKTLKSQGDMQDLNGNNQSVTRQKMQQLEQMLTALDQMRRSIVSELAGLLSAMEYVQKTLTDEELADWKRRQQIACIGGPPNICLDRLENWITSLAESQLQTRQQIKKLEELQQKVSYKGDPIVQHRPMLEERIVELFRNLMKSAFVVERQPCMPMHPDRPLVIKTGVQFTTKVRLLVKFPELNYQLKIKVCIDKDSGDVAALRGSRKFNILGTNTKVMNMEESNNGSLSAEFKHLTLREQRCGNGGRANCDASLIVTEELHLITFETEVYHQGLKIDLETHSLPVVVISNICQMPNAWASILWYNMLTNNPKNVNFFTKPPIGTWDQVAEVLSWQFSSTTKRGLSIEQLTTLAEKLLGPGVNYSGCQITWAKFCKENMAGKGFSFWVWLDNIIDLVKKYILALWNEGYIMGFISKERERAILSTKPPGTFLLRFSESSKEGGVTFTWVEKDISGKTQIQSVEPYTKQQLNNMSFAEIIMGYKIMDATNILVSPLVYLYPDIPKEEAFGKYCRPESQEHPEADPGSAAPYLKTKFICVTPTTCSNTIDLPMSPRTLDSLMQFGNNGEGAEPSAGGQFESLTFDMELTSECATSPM

Effect on STAT1 phosphorylation (STAT1) | Compound | Inhibition of STAT3 phosphorylation (STAT3) | Percent inhibition (MCF7 breast cancer cells) [%] | IC50 (MT300 GBM cells) [nM] | IC50 (LN299 GBM cells) [nM] | Antiproliferative effect (parental GBM cells) | Antiproliferative effect (STAT3-KO GBM cells) | Effect on orthotopic GBM tumor xenografts (MT330 glioma xenografts)
no effect | CC(C)(Oc1ccccc1)C(=O)Nc1sc(Cc2ccccc2)cc1C#N [Compound 7, N-(5-benzyl-3-cyanothiophen-2-yl)-2-methyl-2-phenoxypropanamide] | potently block STAT3 phosphorylation at submicromolar levels | 23.33 | – | – | – | – | –
no effect | N#Cc1cc(Cc2ccccc2)sc1NC(=O)COc1ccccc1 [Compound 1, N-(5-benzyl-3-cyanothiophen-2-yl)-2-phenoxyacetamide] | – | 28.06 | 85 | 95 | sensitive | resistant | markedly reduced
– | N#Cc1cc(Cc2ccccc2)sc1NC(=O)COc1cccc(C(F)(F)F)c1 [Compound 6, N-(5-benzyl-3-cyanothiophen-2-yl)-2-(3-(trifluoromethyl)phenoxy)acetamide] | – | 51.00 | – | – | – | – | –
no effect | N#Cc1cc(Cc2ccccc2)sc1NC(=O)c1cc2ccccc2o1 [Compound 5, N-(5-benzyl-3-cyanothiophen-2-yl)benzofuran-2-carboxamide] | potently block STAT3 phosphorylation at submicromolar levels | 65.67 | – | – | – | – | –
